{"source": "ChEMBL document CHEMBL1201862", "about": "“PubChem BioAssay data set” (2004)", "key": {"Hexokinase HKDC1": {"target": "T1, Hexokinase HKDC1 (Homo sapiens, UniProt Q2TB90)", "T1 sequence (Q2TB90 whole entry)": "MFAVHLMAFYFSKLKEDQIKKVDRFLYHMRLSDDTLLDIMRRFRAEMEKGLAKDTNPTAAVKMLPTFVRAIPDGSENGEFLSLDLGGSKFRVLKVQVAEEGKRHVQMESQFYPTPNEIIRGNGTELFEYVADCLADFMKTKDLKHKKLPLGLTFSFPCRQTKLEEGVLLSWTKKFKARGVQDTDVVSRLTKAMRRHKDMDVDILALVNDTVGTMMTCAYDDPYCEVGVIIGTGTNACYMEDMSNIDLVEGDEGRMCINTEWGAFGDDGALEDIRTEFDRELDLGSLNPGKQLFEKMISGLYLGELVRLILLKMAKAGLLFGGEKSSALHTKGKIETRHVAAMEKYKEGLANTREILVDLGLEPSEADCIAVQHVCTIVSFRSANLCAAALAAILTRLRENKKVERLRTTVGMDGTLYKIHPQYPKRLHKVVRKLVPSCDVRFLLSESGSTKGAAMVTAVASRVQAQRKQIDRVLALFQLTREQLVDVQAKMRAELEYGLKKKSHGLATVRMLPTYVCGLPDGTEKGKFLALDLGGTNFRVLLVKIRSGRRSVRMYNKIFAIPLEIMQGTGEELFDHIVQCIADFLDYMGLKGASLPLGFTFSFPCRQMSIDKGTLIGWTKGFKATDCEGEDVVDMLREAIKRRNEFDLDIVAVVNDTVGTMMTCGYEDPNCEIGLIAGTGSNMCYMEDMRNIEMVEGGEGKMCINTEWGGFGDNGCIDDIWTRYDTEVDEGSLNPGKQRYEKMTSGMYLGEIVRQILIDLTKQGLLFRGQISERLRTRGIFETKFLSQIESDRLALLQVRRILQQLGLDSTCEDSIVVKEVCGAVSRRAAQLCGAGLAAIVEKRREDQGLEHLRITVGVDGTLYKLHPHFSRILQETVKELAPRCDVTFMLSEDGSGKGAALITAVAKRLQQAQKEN", "experiment": "HKDC1 hexokinase inhibitors, dose response, biochemical, W721R variant (AID 504729)", "type": "functional"}, "[1]": {"target": "T2, Tyrosyl-DNA phosphodiesterase 2 (Homo sapiens, UniProt O95551)", "T2 sequence (O95551 whole entry)": "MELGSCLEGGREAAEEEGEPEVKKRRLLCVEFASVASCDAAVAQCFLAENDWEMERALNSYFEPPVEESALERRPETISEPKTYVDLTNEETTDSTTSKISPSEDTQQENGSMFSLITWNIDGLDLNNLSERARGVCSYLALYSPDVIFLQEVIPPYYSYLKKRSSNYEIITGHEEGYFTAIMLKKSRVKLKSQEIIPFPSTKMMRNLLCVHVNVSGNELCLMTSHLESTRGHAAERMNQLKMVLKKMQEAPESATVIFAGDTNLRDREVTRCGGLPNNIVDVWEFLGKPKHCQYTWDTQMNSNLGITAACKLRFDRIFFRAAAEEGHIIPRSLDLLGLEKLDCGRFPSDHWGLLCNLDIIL", "experiment": "human TDP2 enzyme inhibitors, dose response, biochemical, epi absorbance, IC50 (AID 743297)"}, "[2]": {"target": "T3, Sentrin-specific protease 6 (Homo sapiens, UniProt Q9GZR1)", "T3 sequence (Q9GZR1 whole entry)": "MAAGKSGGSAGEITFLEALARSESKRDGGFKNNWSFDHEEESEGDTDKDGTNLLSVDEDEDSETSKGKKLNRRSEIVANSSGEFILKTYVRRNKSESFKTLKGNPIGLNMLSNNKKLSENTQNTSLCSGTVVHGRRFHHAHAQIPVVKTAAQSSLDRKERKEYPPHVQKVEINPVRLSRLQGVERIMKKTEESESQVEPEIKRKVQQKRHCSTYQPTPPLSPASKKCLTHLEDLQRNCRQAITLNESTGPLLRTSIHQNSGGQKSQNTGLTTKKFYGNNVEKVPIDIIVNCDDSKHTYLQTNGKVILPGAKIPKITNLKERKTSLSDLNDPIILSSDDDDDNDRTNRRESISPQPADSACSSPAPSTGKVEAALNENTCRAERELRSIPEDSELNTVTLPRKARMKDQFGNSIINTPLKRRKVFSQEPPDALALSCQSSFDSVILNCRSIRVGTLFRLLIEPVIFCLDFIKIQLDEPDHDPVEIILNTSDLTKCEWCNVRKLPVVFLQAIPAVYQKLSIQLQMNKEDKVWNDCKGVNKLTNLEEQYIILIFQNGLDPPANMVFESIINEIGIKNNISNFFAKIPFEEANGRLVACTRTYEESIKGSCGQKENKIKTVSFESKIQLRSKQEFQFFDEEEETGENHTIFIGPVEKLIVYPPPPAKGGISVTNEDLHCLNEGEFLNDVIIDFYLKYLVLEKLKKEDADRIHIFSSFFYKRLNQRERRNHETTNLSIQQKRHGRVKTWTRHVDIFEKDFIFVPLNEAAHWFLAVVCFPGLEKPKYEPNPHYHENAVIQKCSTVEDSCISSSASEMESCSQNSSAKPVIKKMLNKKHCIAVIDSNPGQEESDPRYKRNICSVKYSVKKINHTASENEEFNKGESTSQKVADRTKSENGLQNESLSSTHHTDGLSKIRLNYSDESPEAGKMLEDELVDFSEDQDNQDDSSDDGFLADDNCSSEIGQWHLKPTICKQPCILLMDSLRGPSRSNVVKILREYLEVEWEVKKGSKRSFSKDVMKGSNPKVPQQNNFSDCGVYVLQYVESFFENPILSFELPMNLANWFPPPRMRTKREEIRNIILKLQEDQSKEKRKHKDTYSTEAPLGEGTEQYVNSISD", "type": "functional"}, "Caspase-3": {"target": "T4, Caspase-3 (Homo sapiens, UniProt P42574)", "T4 sequence (P42574 whole entry)": "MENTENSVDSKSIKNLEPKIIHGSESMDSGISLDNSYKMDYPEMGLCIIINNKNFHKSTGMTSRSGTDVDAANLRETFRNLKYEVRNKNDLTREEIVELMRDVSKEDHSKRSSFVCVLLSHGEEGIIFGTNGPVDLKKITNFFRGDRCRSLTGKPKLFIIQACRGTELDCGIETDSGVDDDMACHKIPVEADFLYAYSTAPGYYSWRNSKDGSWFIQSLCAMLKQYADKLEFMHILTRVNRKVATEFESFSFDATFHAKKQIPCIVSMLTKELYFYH", "type": "functional"}, "[3]": {"experiment": "Luminescence Cell-Based Dose Response HTS to Identify Inhibitors of 5'UTR Stem-Loop Driven Prion Protein mRNA Translation in H4 Neuroglioblastoma Cells. [Related pubchem assays: 1827 (Project Summary), 1813 (Primary HTS)]", "type": "functional"}}, "note": "Active and inactive are the calls of the source."}
{"molecule": "CC(=O)NC1C(=O)N(CCN2CCOCC2)c2ccc(F)cc21", "note": "(configuration not stated)", "values": [{"measurement": "IC50", "setting": "Hexokinase HKDC1", "value": "9.43 µM (active)"}, {"measurement": "IC50", "setting": "[1]", "value": "33.4 µM (inactive)"}]}
{"molecule": "O=C1N=C(NS(=O)(=O)Cc2ccccc2)S/C1=C1\\C(=O)Nc2ccccc21", "values": [{"measurement": "IC50", "setting": "[2]", "value": "15.7 µM (active)"}, {"measurement": "IC50", "setting": "Caspase-3", "value": "67.2 µM (active)"}]}
{"molecule": "O=C1C=C(N2CCCCC2)c2ccccc2C1=O", "values": [{"measurement": "EC50", "setting": "[3]", "value": "8.27 µM (active)"}, {"measurement": "IC50", "setting": "Hexokinase HKDC1", "value": "1.34 µM (active)"}, {"measurement": "IC50", "setting": "[1]", "value": "5.32 µM (active)"}]}
{"molecule": "Clc1ccc2nc(-c3ccc(Br)s3)cn2c1", "values": [{"measurement": "IC50", "setting": "[2]", "value": "12.3 µM (active)"}, {"measurement": "IC50", "setting": "Caspase-3", "value": "11.2 µM (active)"}]}
{"molecule": "O=C(CCc1ccccc1)NNc1cc(N2CCCCC2)nc(N2CCCCC2)n1", "values": [{"measurement": "EC50", "setting": "[3]", "value": "> 120 µM (not active)"}]}
{"molecule": "Oc1ccc(N=Nc2c(O)ccc3ccccc23)cc1", "values": [{"measurement": "IC50", "setting": "[2]", "value": "13 µM (active)"}, {"measurement": "IC50", "setting": "Caspase-3", "value": "49.7 µM (active)"}]}
